The first assay concerns the target T1, human oxytocin receptor (Homo sapiens, UniProt P30559).
T1 construct: host or cells: CHO cells, stably transfected (pcDNA3.1 vector)
T1 sequence (P30559 1-389): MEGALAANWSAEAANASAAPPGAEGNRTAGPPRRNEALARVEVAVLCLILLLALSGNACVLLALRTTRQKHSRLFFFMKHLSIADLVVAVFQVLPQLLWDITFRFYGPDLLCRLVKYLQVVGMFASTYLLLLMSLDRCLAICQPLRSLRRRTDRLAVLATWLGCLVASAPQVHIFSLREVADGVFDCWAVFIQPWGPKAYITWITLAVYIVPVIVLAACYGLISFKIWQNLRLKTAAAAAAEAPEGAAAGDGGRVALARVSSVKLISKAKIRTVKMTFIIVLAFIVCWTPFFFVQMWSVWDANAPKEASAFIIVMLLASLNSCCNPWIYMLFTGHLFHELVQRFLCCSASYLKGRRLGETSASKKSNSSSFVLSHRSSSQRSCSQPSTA
Briefly: Oxytocin binding in CHO cell membranes expressing human oxytocin receptors ([3H]oxytocin radioligand binding). The note with it: 100 nM. The method, then:
Oxytocin Binding in Chinese Hamster Ovary Cell Membranes Expressing Human Oxytocin Receptors
Cell Culture medium (e.g. 30 mL for 1:30 split) is immediately added and mixed well to inactivate trypsin. 1 mL of detached cells is added to new culture flasks containing fresh Cell Culture medium (e.g. into 25 mL per T-150 flask), and mixed gently. The cells are incubated at 37° C. in 5% CO2. The medium is changed at 3 to 4 days interval (or as appropriate). […] All steps are done under sterile conditions.
The cells are washed twice gently with Hank's Balanced Salt solution (e.g., use 10 mL per T-150 flask). […] The contents are transferred to centrifuge tubes (50 mL size) kept in ice bath. All subsequent steps are done at 4° C. The tubes are centrifuged at 300×g for 15 min (1380 rpm on SORVAL, Model RT6000D, using rotor for 50 mL tubes). The supernatant is discarded and the cells suspended in homogenizing buffer (10 mM Tris-HCl containing 0.25 M sucrose and 1 mM EDTA, pH 7.4) ensuring that the volume of the buffer is about ten times the volume of the cell pellet. The cells are pooled into a centrifuge tube (50 mL) and homogenized with a Polytron at setting 6 for 10 sec. The homogenate is transferred into a Potter-Elvjehm homogenizer and homogenized with 3 strokes. The homogenate is centrifuged at 1500×g for 10 min at 4° C. (3100 rpm using SORVAL, model RT6000D, using a rotor for 50 mL tubes). The pellet is discarded. The supernatant is centrifuged at 100,000×g for 60 min. at 4° C. (Beckman L8-80M ultracentrifuge; spin at 37,500 rpm with rotor type 70 Ti for 50 mL tubes; 38,000 rpm with rotor type 8OTi for 15 mL tubes; or 35,800 rpm with rotor type 45Ti). The supernantant is discarded and the pellet suspended in 3 to 4 mL of Tris buffer (50 mM TRIS-HCl, pH 7.4). The protein content is estimated by the Bradford or Lowry method. The volume of the membrane suspension is adjusted with the membrane buffer (50 mM Tris-HCl containing 0.1% BSA and 0.1 mM PMSF) to give 3.0 mg/mL (or as appropriate) of protein. The membranes are aliquoted and stored at −70° C.
In wells of a 96-well format microtiter plate, is added 90, 110 or 130 μL (to make up a final volume of 200 μL) of assay buffer containing 50 mM of Tris-HCl (pH 7.4), […], 1 mg % aprotinin, 1 mg % leupeptin, 2 mg % 1,10-phenanthroline, 10 mg % trypsin inhibitor, and 0.1 mM PMSF. The inhibitors are added on the day of the experiment. The components are mixed at room temperature, and then kept in ice bath following adjustment of the pH to 7.4. […] For oxytocin and other peptide ligands, 20 μL of 50% DMSO is added and the assay buffer volume is adjusted accordingly. To each well is added 50 μL of frozen membrane suspension thawed immediately prior to use and diluted in assay buffer to the required concentration (equivalent to 25 to 50 μg of protein/well as needed). 20 μL of 8 nM [^3H]oxytocin in the assay buffer, prepared just before use is added and incubated at room temperature for 60 min. shaking the plate on a mechanical shaker for the first 15 min. The incubation is stopped by rapid filtration of the plate contents followed by washing with ice-cold buffer (50 mM Tris-HCl, pH 7.4) using a cell harvester (Tomtek and Printed filtermat-B filter paper). The filter paper is thoroughly dried (7–12 min. in a microwave oven) and impregnated with MeltiLex B/H melt-on scintillation wax sheets and the radioactivity counted in a betaplate scintillation counter.
Binding data is either reported as percent inhibition at a certain concentration or if an IC50 was calculated, as a nanomolar concentration.
`COc1cc(C(=O)N2Cc3ccc(C(=O)N4CCN(c5ccccn5)CC4)n3Cc3ccccc32)ccc1-c1cccc2ccccc12` [Example 83]: the “OT % inhibition @ 100 nM” value is given as 30%.

The assay is the same for the next values; noted with them: 100 nM, read-out: OT % inhibition @ 100 nM.
`COc1cccc(-c2ccc(C(=O)N3Cc4ccc(C(=O)NCc5cccnc5)n4Cc4ccccc43)cc2C)c1` [Example 38, 10-[(3′-Methoxy-2-methyl-[1,1′-biphenyl]-4-yl)carbonyl]-N-(3-pyridinylmethyl)-10,11-dihydro-5H-pyrrolo[2,1-c][1,4]benzodiazepine-3-carboxamide]: the inhibition at 0.1 µM was 26%.

Consider `COc1cc(-c2ccccc2C)c(Cl)cc1C(=O)N1Cc2ccc(C(=O)N3CCN(c4ccncc4)CC3)n2Cc2ccccc21` [Example 119, {10-[(6-Chloro-3-methoxy-2′-methyl-[1,1′-biphenyl]-4-yl)carbonyl]-10,11-dihydro-5H-pyrrolo[2,1-c][1,4]benzodiazepin-3-yl}[4-(4-pyridinyl)-1-piperazinyl]methanone], for which the inhibition at 0.1 µM was determined as 83%.

`Cc1ccccc1-c1ccc(C(=O)N2Cc3ccc(C(=O)NCc4cccnc4)n3Cc3ccccc32)cc1C` [Example 37, 10-[(2,2′-Dimethyl-[1,1′-biphenyl]-4-yl)carbonyl]-N-(3-pyridinylmethyl)-10,11-dihydro-5H-pyrrolo[2,1-c][1,4]benzodiazepine-3-carboxamide]: the inhibition at 0.1 µM was determined as 60%.

Take `COc1ccccc1-c1ccc(C(=O)N2Cc3ccc(C(=O)NCc4ccccn4)n3Cc3ccccc32)cc1` [Example 26, 10-[(2′-Methoxy-[1,1′-biphenyl]-4-yl)carbonyl]-N-(2-pyridinylmethyl)-10,11-dihydro-5H-pyrrolo[2,1-c][1,4]benzodiazepine-3-carboxamide]: the inhibition at 0.1 µM was 47%.

Take `COc1cccc(-c2ccc(C(=O)N3Cc4ccc(C(=O)NCCc5ccccn5)n4Cc4ccccc43)cc2C)c1` [Example 51, 10-[(3′-Methoxy-2-methyl-[1,1′-biphenyl]-4-yl)carbonyl]-N-[2-(2-pyridinyl)ethyl]-10,11-dihydro-5H-pyrrolo[2,1-c][1,4]benzodiazepine-3-carboxamide]: the inhibition at 0.1 µM was determined as 31%.

As for `COc1ccccc1-c1ccc(C(=O)N2Cc3ccc(C(=O)N(C)CCc4ccncc4)n3Cc3ccccc32)cc1C` [Example 126, 10-[(2′-Methoxy-2-methyl-[1,1′-biphenyl]-4-yl)carbonyl]-N-methyl-N-[2-(4-pyridinyl)ethyl]-10,11-dihydro-5H-pyrrolo[2,1-c][1,4]benzodiazepine-3-carboxamide], the inhibition at 0.1 µM is 93%.

Turning to `Cc1ccccc1-c1ccc(C(=O)N2Cc3ccc(C(=O)NCc4cccnc4)n3Cc3ccccc32)cc1` [Example 40, 10-[(2′-Methyl-[1,1′-biphenyl]-4-yl)carbonyl]-N-(3-pyridinylmethyl)-10,11-dihydro-5H-pyrrolo[2,1-c][1,4]benzodiazepine-3-carboxamide], the inhibition at 0.1 µM is 17%.

As for `COc1ccccc1-c1ccc(C(=O)N2Cc3ccc(C(=O)NCc4ccccn4)n3Cc3ccccc32)cc1OC` [Example 32, 10-[(2,2′-Dimethoxy-[1,1′-biphenyl]-4-yl)carbonyl]-N-(2-pyridinylmethyl)-10,11-dihydro-5H-pyrrolo[2,1-c][1,4]benzodiazepine-3-carboxamide], the inhibition at 0.1 µM turned out to be 47%.

For `O=C(c1ccc2n1Cc1ccccc1N(C(=O)c1ccc(-c3cccc4ccccc34)cc1Cl)C2)N1CCN(c2ccncc2)CC1` [Example 124, {10-[2-Chloro-4-(naphthalen-1-yl)benzoyl]-10,11-dihydro-5H-pyrrolo[2,1-c][1,4]benzodiazepin-3-yl}[4-(4-pyridinyl)-1-piperazinyl]methanone], the inhibition at 0.1 µM was 24%.

`COc1ccccc1-c1ccc(C(=O)N2Cc3ccc(C(=O)N(C)CCc4ccccn4)n3Cc3ccccc32)cc1OC` [Example 64, 10-[(2,2′-Dimethoxy-[1,1′-biphenyl]-4-yl)carbonyl]-N-methyl-N-[2-(2-pyridinyl)ethyl]-10,11-dihydro-5H-pyrrolo[2,1-c][1,4]benzodiazepine-3-carboxamide]: the inhibition at 0.1 µM turned out to be 91%.

`COc1cc(C(=O)N2Cc3ccc(C(=O)N(C)CCc4ccccn4)n3Cc3ccccc32)ccc1-n1c(C)ccc1C` [Example 144, 10-[4-(2,5-Dimethyl-1H-pyrrol-1-yl)-3-methoxybenzoyl]-N-methyl-N-[2-(pyridin-2-yl)ethyl]-10,11-dihydro-5H-pyrrolo[2,1-c][1,4]benzodiazepine-3-carboxamide]: the inhibition at 0.1 µM was 57%.

Consider `COc1cc(C(=O)N2Cc3ccc(C(=O)N4CCN(c5ccccn5)CC4)n3Cc3ccccc32)ccc1-n1c(C)ccc1C` [Example 145, {10-[4-(2,5-Dimethyl-1H-pyrrol-1-yl)-3-methoxybenzoyl]-10,11-dihydro-5H-pyrrolo[2,1-c][1,4]benzodiazepin-3-yl}[4-(pyridin-2-yl)-1-piperazinyl]methanone], for which the inhibition at 0.1 µM came out at 22%.

With `COc1ccccc1-c1ccc(C(=O)N2Cc3ccc(C(=O)NCCc4ccccn4)n3Cc3ccccc32)cc1OC` [Example 58, 10-[(2,2′-Dimethoxy-[1,1′-biphenyl]-4-yl)carbonyl]-N-[2-(2-pyridinyl)ethyl]-10,11-dihydro-5H-pyrrolo[2,1-c][1,4]benzodiazepine-3-carboxamide], the inhibition at 0.1 µM worked out at 37%.

Consider `COc1cc(C(=O)N2Cc3ccc(C(=O)NCc4cccnc4)n3Cc3ccccc32)ccc1-c1cccc2ccccc12` [Example 44, 10-[3-Methoxy-4-(naphthalen-1-yl)benzoyl]-N-(3-pyridinylmethyl)-10,11-dihydro-5H-pyrrolo[2,1-c][1,4]benzodiazepine-3-carboxamide], for which the inhibition at 0.1 µM was found to be 22%.

As for `COc1cc(C(=O)N2Cc3ccc(C(=O)NCc4ccccn4)n3Cc3ccccc32)ccc1-c1cccc2ccccc12` [Example 31, 10-[3-Methoxy-4-(naphthalen-1-yl)benzoyl]-N-(2-pyridinylmethyl)-10,11-dihydro-5H-pyrrolo[2,1-c][1,4]benzodiazepine-3-carboxamide], the inhibition at 0.1 µM amounted to 18%.

Regarding `COc1cccc(-c2ccc(C(=O)N3Cc4ccc(C(=O)NCc5ccccn5)n4Cc4ccccc43)cc2C)c1` [Example 25, 10-[(3′-Methoxy-2-methyl-[1,1′-biphenyl]-4-yl)carbonyl]-N-(2-pyridinylmethyl)-10,11-dihydro-5H-pyrrolo[2,1-c][1,4]benzodiazepine-3-carboxamide], the inhibition at 0.1 µM amounted to 50%.

Turning to `COc1cccc(-c2ccc(C(=O)N3Cc4ccc(C(=O)N5CCN(c6ccncc6)CC5)n4Cc4ccccc43)cc2C)c1` [Example 115, {10-[(3′-Methoxy-2-methyl-[1,1′-biphenyl]-4-yl)carbonyl]-10,11-dihydro-5H-pyrrolo[2,1-c][1,4]benzodiazepin-3-yl}[4-(4-pyridinyl)-1-piperazinyl]methanone], the inhibition at 0.1 µM stood at 66%.

The inhibition is the change of the read-out against control, counted positive when it falls.

Values taken from US7064120B2, “Tricyclic pyridyl carboxamides and derivatives thereof tocolytic oxytocin receptor antagonists” (Wyeth, priority 2001, dated 2006).
